Measured values reported in US11034648B2, “Cystobactamide derivatives” (priority 2017, dated 2021).
≈ marks a conversion by molar mass, not a printed value. Read-outs that look alike come from different tables or passages of the source.

What was measured:
E. cloacae DSM-30054 = assay: MIC, microbroth dilution susceptibility assay; format: cell-based; conditions: Enterobacter cloacae, DSM30054; large panel, Table 2a
Method in brief: (§1)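 First, overnight cultures were diluted into cation-adjusted Müller-Hinton broth at 10^4-10^6 cfu/mL. Next, they were exposed to serial compound dilutions for approx. 16 h at 30-37° C. Finally, wells were inspected visually and the MIC assigned where growth was absent.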

K. pneumoniae DSM-30104 = assay: MIC, microbroth dilution susceptibility assay; format: cell-based; conditions: Klebsiella pneumoniae, DSM30104; large panel, Table 2a
Method in brief: as §1

S. aureus ATCC-29213 = assay: MIC, microbroth dilution susceptibility assay; format: cell-based; conditions: Staphylococcus aureus, ATCC29213; large panel, Table 2a
Method in brief: as §1

S. pneumoniae DSM-20566 = assay: MIC, microbroth dilution susceptibility assay; format: cell-based; conditions: Streptococcus pneumoniae, DSM20566; large panel, Table 2a; TSB
Method in brief: as §1

A. baumannii DSM-30008 = assay: MIC, microbroth dilution susceptibility assay; format: cell-based; conditions: Acinetobacter baumannii, DSM30008; large panel, Table 2a
Method in brief: as §1

E. coli WT = assay: MIC, microbroth dilution susceptibility assay; format: cell-based; conditions: Escherichia coli; large panel, Table 2a
Method in brief: as §1

E. aerogenes DSM-30053 = assay: MIC, microbroth dilution susceptibility assay; format: cell-based; conditions: Klebsiella aerogenes, DSM30053; large panel, Table 2a
Method in brief: as §1

P. aeruginosa WT PA14 = assay: MIC, microbroth dilution susceptibility assay; format: cell-based; conditions: Pseudomonas aeruginosa
Method in brief: as §1

P. vulgaris DSM-2140 = assay: MIC, microbroth dilution susceptibility assay; format: cell-based; conditions: Proteus vulgaris, DSM2140; large panel, Table 2a
Method in brief: as §1

P. mirabilis DSM-2140 = assay: MIC, microbroth dilution susceptibility assay; format: cell-based; conditions: Proteus mirabilis, DSM2140; large panel, Table 2a
Method in brief: as §1

C. freundii DSM-30039 = assay: MIC, microbroth dilution susceptibility assay; format: cell-based; conditions: Citrobacter freundii, DSM30039; large panel, Table 2a
Method in brief: as §1

P. aeruginosa DSM-46316 = assay: MIC, microbroth dilution susceptibility assay; format: cell-based; conditions: Pseudomonas aeruginosa, DSM46316; large panel, Table 2a
Method in brief: as §1

S. epidermidis DSM-28765 = assay: MIC, microbroth dilution susceptibility assay; format: cell-based; conditions: Staphylococcus epidermidis, DSM28765; large panel, Table 2a
Method in brief: as §1

E. faecalis ATCC-29212 = assay: MIC, microbroth dilution susceptibility assay; format: cell-based; conditions: Enterococcus faecalis, ATCC29212; large panel, Table 2a; TSB
Method in brief: as §1

E. coli WT DSM-1116 = assay: MIC, microbroth dilution susceptibility assay; format: cell-based; conditions: Escherichia coli, no visual growth after approx. 16 h
Method in brief: as §1

S. aureus Newman = assay: MIC, microbroth dilution susceptibility assay; format: cell-based; conditions: Staphylococcus aureus, NEWMAN, read-out: MIC S. aureus Newman
Method in brief: as §1

P. aeruginosa DSM-24600 = assay: MIC, microbroth dilution susceptibility assay; format: cell-based; conditions: Pseudomonas aeruginosa, DSM24600; large panel, Table 2a
Method in brief: as §1

S. marcescens DSM-30121 = assay: MIC, microbroth dilution susceptibility assay; format: cell-based; conditions: Serratia marcescens, DSM30121; large panel, Table 2a
Method in brief: as §1

[1] = tested on: E. coli WT-III [marRΔ74bp]; format: cell-based; conditions: fluoroquinolone-resistant mutant; Table 2a
Description: Cystobactamid derivatives synthesized were tested against relevant Gram negative and positive bacteria of clinical interest. Experimental procedures used for the biological characterization of the compounds are the same as previously described in WO 2016/082934.
Bacterial strains used in susceptibility assays (minimum inhibitory concentration, MIC) were either part of our internal strain collection or purchased from the German Collection of Microorganisms and Cell Cultures (Deutsche Sammlung von Mikroorganismen und Zellkulturen, DSMZ) and the American Type Culture Collection (ATCC). The susceptible E. coli strain (WT) and fluoroquinolone-resistant mutants E. coli WT-3 and WT-III were kindly provided by Prof Dr. P. Heisig, Pharmaceutical Biology and Microbiology, University of Hamburg, Germany. The efflux-deficient strain P. aeruginosa ΔmexAB was kindly provided by Prof Dr. S. Häußler, Institute for Molecular Bacteriology, TWINCORE, Hannover, Germany. All compounds were prepared as DMSO stocks and MIC values were determined in standard microbroth dilution assays in 96-well MTPs as described in Baumann et al., Angew Chem Int Ed Engl. 2014; 53(52):14605-9. In brief, overnight cultures of bacteria were diluted in either tryptic soy broth (TSB: 1.7% peptone casein, 0.3% peptone soymeal, 0.25% glucose, 0.5% NaCl, 0.25% K2HPO4; pH 7.3; S. pneumoniae and E. faecalis) or cation-adjusted Müller-Hinton Broth (BBL™, BD; all other bacteria) and adjusted to 10^4-10^6 cfu/mL. Bacteria were grown in the presence of the derivatives in serial dilution for approx. 16 h at 30-37° C. MIC values were determined and were defined as the antibiotic concentration at which no visual growth of bacteria was observed.

[2] = tested on: E. coli WT-3 [gyrA(S83L,D87G)]; assay: microbe, parasite or virus in culture; format: cell-based; conditions: Escherichia coli, read-out: MIC E. coli WT-3 [gyrA(S83L,D87G)]
Method in brief: as §1

P. aeruginosa ΔmexAB = assay: microbe, parasite or virus in culture; format: cell-based; conditions: Pseudomonas aeruginosa, 16 h, read-out: MIC P. aeruginosa ΔmexAB, efflux-deficient strain; small panel, Tables 1a/1b
Method in brief: as §1

E. coli ΔtolC = assay: microbe, parasite or virus in culture; format: cell-based; conditions: Escherichia coli, 16 h, read-out: MIC E. coli ΔtolC, small panel, Tables 1a/1b; no visual growth after approx. 16 h
Method in brief: as §1

E. coli gyrase = molecular target: T1, E. coli gyrase (Escherichia coli, UniProt P0AES4+P0AES6); assay: E. coli gyrase supercoiling (sc) assay; format: biochemical; conditions: supercoiling assay kit, agarose gel quantification; read-out: Ec gyrase sc IC50
T1 construct: purchased Inspiralis
Description: The target activity on E. coli gyrase was assessed as described in Baumann et al., Angew Chem Int Ed Engl. 2014; 53(52):14605-9 using a commercial supercoiling (sc) assay kit from Inspiralis according to the manufacturer's instructions. The samples were separated on 0.8% (w/v) agarose gels and relaxed and supercoiled plasmid was visualized by ethidium bromide staining. Half-inhibitory concentrations (IC50) were calculated after image analysis and quantification (ImageJ) based on sigmoidal curve fitting (OriginPro).

[3] = PA14, small panel, Tables 1a/1b, read-out: MIC P. aeruginosa WT PA14
[4] = DSM1116, small panel, Tables 1a/1b, read-out: MIC E. coli WT DSM-1116
[5] = DSM1116, 16 h, read-out: MIC E. coli WT DSM-1116, small panel, Tables 1a/1b
[6] = PA14, read-out: MIC P. aeruginosa WT PA14

Row | SMILES | MIC (E. cloacae DSM-30054) [µg/mL] | MIC (K. pneumoniae DSM-30104) [µg/mL] | MIC (S. aureus ATCC-29213) [µg/mL] | MIC (S. pneumoniae DSM-20566) [µg/mL] | MIC (A. baumannii DSM-30008) [µg/mL] | MIC (E. coli WT) [µg/mL] | MIC (E. aerogenes DSM-30053) [µg/mL] | MIC (P. aeruginosa WT PA14; [3]) [µg/mL] | MIC (P. vulgaris DSM-2140) [µg/mL] | MIC (P. mirabilis DSM-2140) [µg/mL] | MIC (C. freundii DSM-30039) [µg/mL] | MIC (P. aeruginosa DSM-46316) [µg/mL] | MIC (S. epidermidis DSM-28765) [µg/mL] | MIC (E. faecalis ATCC-29212) [µg/mL] | MIC (E. coli WT DSM-1116; [4]) [µg/mL] | MIC (S. aureus Newman; small panel, Tables 1a/1b) [µg/mL] | MIC (P. aeruginosa ΔmexAB) [µg/mL] | MIC (E. coli ΔtolC) [µg/mL] | MIC (E. coli WT DSM-1116; [5]) [µg/mL] | IC50 (E. coli gyrase) [nM] | further results
1 | C/C(=C\c1ccc(O)cc1)C(=O)Nc1ccc(C(=O)N[C@@H](CC(N)=O)C(=O)Nc2ccc(C(=O)Nc3ccc(C(=O)Nc4ccc(C(=O)O)cc4)c(O)c3OC(C)C)cc2)cc1 [Compound 53, (S,E)-4-(4-(4-(4-amino-2-(4-(3-(4-hydroxyphenyl)-2-methylacrylamido)benzamido)-4-oxobutanamido)benzamido)-2-hydroxy-3-isopropoxybenzamido)benzoic acid] | > 64 | > 64 | 0.5 (≈ 0.593 µM) | 2 (≈ 2.37 µM) | 0.25 (≈ 0.297 µM) | 0.13 (≈ 0.154 µM) | 1 (≈ 1.19 µM) | 1 (≈ 1.19 µM) | 0.13 (≈ 0.154 µM) | 2 (≈ 2.37 µM) | 0.13 (≈ 0.154 µM) | 2 (≈ 2.37 µM) | 0.25 (≈ 0.297 µM) | 0.5 (≈ 0.593 µM) | 0.25 (≈ 0.297 µM) | 0.25 (≈ 0.297 µM) | 0.25 (≈ 0.297 µM) | 0.06 (≈ 0.0712 µM) | – | – | MIC (P. aeruginosa DSM-24600): > 64 µg/mL; MIC (S. marcescens DSM-30121): 64 µg/mL (≈ 75.9 µM); MIC E. coli WT-III [marRΔ74bp] [1]: 0.06 µg/mL (≈ 0.0712 µM); MIC [2]: 0.06 µg/mL (≈ 0.0712 µM)
2 | C/C(=C\c1ccc(C#N)cc1)C(=O)Nc1ccc(C(=O)N[C@@H](CC(N)=O)C(=O)Nc2ccc(C(=O)Nc3ccc(C(=O)Nc4ccc(C(=O)O)c(O)c4OC(C)C)c(O)c3OC(C)C)cc2)cc1 [Compound 124, (S,E)-4-(4-(4-(4-Amino-2-(4-(3-(4-cyanophenyl)-2-methylacrylamido)benzamido)-4-oxobutanamido)benzamido)-2-hydroxy-3-isopropoxybenzamido)-2-hydroxy-3-isopropoxybenzoic acid] | – | – | – | – | – | – | – | – | – | – | – | – | – | – | 0.5 (≈ 0.54 µM) | 0.06 (≈ 0.0648 µM) | – | – | 0.125 (≈ 0.135 µM) | 200 | –
3 | CC(C)Oc1c(NC(=O)c2ccc(NC(=O)[C@H](CC(N)=O)NC(=O)c3ccc(NC(=O)c4ccc([N+](=O)[O-])cc4)cc3)cc2)ccc(C(=O)Nc2ccc(C(=O)O)cc2)c1O [Compound 28, (S)-4-(4-(4-(4-amino-2-(4-(4-nitrobenzamido)benzamido)-4-oxobutanamido)benzamido)-2-hydroxy-3-isopropoxybenzamido)benzoic acid] | 0.25 (≈ 0.301 µM) | > 64 | 0.5 (≈ 0.601 µM) | 0.25 (≈ 0.301 µM) | 0.25 (≈ 0.301 µM) | 0.06 (≈ 0.0721 µM) | > 64 | > 64 | 0.13 (≈ 0.156 µM) | > 64 | 0.06 (≈ 0.0721 µM) | > 64 | 1 (≈ 1.2 µM) | 2 (≈ 2.4 µM) | 0.13 (≈ 0.156 µM) | 0.5 (≈ 0.601 µM) | 1 (≈ 1.2 µM) | 0.06 (≈ 0.0721 µM) | – | 110 | MIC (P. aeruginosa DSM-24600): > 64 µg/mL; MIC (S. marcescens DSM-30121): > 64 µg/mL; MIC E. coli WT-III [marRΔ74bp] [1]: 0.06 µg/mL (≈ 0.0721 µM); MIC [2]: 0.25 µg/mL (≈ 0.301 µM)
4 | CC(C)Oc1c(-n2cc(-c3ccc(NC(=O)[C@H](CC(N)=O)NC(=O)c4ccc(NC(=O)c5ccc(C#N)cc5)cc4)cc3)nn2)ccc(C(=O)Nc2ccc(C(=O)O)cc2)c1O [Compound 119, 4-(4-(4-(4-(4-amino-2-(4-(4-cyanobenzamido)benzamido)-4-oxobutanamido)phenyl)-1H-1,2,3-triazol-1-yl)-2-hydroxy-3-isopropoxybenzamido)benzoic acid] | – | – | – | – | – | – | – | – | – | – | – | – | – | – | – | – | 2 (≈ 2.39 µM) | < 0.03 | 0.06 (≈ 0.0718 µM) | 1500 | MIC (P. aeruginosa WT PA14; [6]): 8 µg/mL (≈ 9.57 µM); MIC (S. aureus Newman): < 0.03 µg/mL
5 | CC(C)Oc1c(NC(=O)c2ccc(NC(=O)[C@H](CC(N)=O)NC(=O)c3ccc(NC(=O)c4ccc(C5(C(F)(F)F)N=N5)cc4)cc3)cc2)ccc(C(=O)Nc2ccc(C(=O)O)cc2)c1O [Compound 37, (S)-4-(4-(4-(4-amino-4-oxo-2-(4-(4-(3-(trifluoromethyl)-3H-diazirin-3-yl)benzamido)benzamido)butanamido)benzamido)-2-hydroxy-3-isopropoxybenzamido)benzoic acid] | – | – | – | – | – | – | – | – | – | – | – | – | – | – | – | – | > 64 | 8 (≈ 8.94 µM) | 16 (≈ 17.9 µM) | 16000 | MIC (P. aeruginosa WT PA14; [6]): > 64 µg/mL; MIC (S. aureus Newman): > 64 µg/mL
